Test results: patent US20250025466A1, “New oral pharmaceutical composition and dose regimen for the therapy of progressive fibrosing interstitial lung diseases” (Boehringer Ingelheim International GmbH, priority 2021, published 2025)
Marks after values point to notes of the source that are not given here.

What was measured:
tuberculosis model = settings: rabbit, in vivo; cited from earlier work
IPF patients [1] = experiment: Phase II clinical trial in IPF patients: Treatment Emergent Adverse Events
IPF patients [2] = settings: male, human, in vivo, 13 weeks
IPF patients [3] = experiment: Phase II clinical trial in IPF patients: disposition / premature discontinuation; type: in vivo, human; settings: 18 mg b.i.d.
Experimental: The participants were divided into 2 groups by chance (the “active agent group” and the “placebo group”). […] One 12 mg placebo tablet and one 6 mg placebo tablet (both containing no active ingredient, see Table 1) was administered orally to the patients of the second group twice daily (b.i.d.).
The “active agent group” and the “placebo group” were further distributed to two different groups regarding background medication: the “AF-group” (“antifibrotic background medication group”) and the “Non-AF-group” (“no antifibrotic background medication group”). […] The combination of both nintedanib and pirfenidone as background medication was not allowed in the “AF-group”.
The trial was a randomised, double-blind, placebo-controlled parallel group study.

human lung fibroblasts = settings: combination with nintedanib; WO2019/081235; cited from earlier work
PDE4 B subtype = PDE4 B subtype (Homo sapiens, UniProt Q07343); settings: disclosed in WO 2013/026797; cited from earlier work
[4] = test system: dextran sulfate sodium-induced colitis ulcerosa; settings: mouse, in vivo; cited from earlier work
skin fibrosis = settings: induced by bleomycin or topoisomerase I and chronic graft-versus-host disease; cited from earlier work
[5] = test system: human fetal lung fibroblasts (HFL-1); settings: cited from earlier work
bleomycin mice [6] = settings: mouse, in vivo; cited from earlier work
patients with IPF [7] = settings: IPF with mild or moderate impairment of FVC (≥50% predicted); cited from earlier work
patients with IPF [8] = settings: in vivo; cited from earlier work
[9] = test system: normal human lung fibroblasts (NHLFs); settings: in the presence of PGE2; cited from earlier work
[10] = test system: normal human lung fibroblasts (NHLFs); settings: cited from earlier work
[11] = test system: normal human lung fibroblasts (NHLFs); settings: stimulated by bleomycin or 8-epi-PGF2α; cited from earlier work
[12] = test system: human fetal lung fibroblast strain (GM06114); settings: in the presence of PGE2; cited from earlier work
[13] = test system: bleomycin-induced fibrosis; settings: cited from earlier work
[14] = test system: diethylnitrosamine-induced liver fibrosis; settings: rat, in vivo; cited from earlier work
[15] = test system: normal human lung fibroblasts (NHLFs); settings: in the presence of indacaterol; cited from earlier work
[16] = test system: type II alveolar epithelial cells; settings: cited from earlier work
bleomycin mice [17] = settings: mouse, in vivo; cited from earlier work; remark: listed apart in the source
[18] = test system: human lung fibroblast model (WI-38); settings: in the presence of forskolin; cited from earlier work
[19] = test system: chronic graft-versus-host disease; settings: cited from earlier work
[20] = test system: bile duct ligation-induced hepatic fibrosis; settings: rat, in vivo; cited from earlier work
sponge implant model = settings: subcutaneous or intraperitoneal implant; cited from earlier work
[21] = test system: trinitrobenzene sulfonic acid-induced colitis; settings: rat, in vivo; cited from earlier work
[22] = test system: A549 human alveolar epithelial cell line; settings: TGF-β1-stimulated; cited from earlier work
[23] = test system: bleomycin-induced fibrosis; settings: administered from the beginning of bleomycin challenge; cited from earlier work
cecal abrasion model = settings: mouse, in vivo; cited from earlier work
[24] = test system: renal interstitial fibrosis; settings: mouse, in vivo; cited from earlier work
[25] = test system: mouse primary tubular epithelial cells; settings: cited from earlier work
hepatic stellate cells = settings: cited from earlier work
[26] = AF-group nintedanib background, 18 mg b.i.d.
[27] = AF-group pirfenidone background, 18 mg b.i.d.
[28] = Total (Non-AF + AF), 18 mg b.i.d.

Sequence of PDE4 B subtype (Q07343 whole entry): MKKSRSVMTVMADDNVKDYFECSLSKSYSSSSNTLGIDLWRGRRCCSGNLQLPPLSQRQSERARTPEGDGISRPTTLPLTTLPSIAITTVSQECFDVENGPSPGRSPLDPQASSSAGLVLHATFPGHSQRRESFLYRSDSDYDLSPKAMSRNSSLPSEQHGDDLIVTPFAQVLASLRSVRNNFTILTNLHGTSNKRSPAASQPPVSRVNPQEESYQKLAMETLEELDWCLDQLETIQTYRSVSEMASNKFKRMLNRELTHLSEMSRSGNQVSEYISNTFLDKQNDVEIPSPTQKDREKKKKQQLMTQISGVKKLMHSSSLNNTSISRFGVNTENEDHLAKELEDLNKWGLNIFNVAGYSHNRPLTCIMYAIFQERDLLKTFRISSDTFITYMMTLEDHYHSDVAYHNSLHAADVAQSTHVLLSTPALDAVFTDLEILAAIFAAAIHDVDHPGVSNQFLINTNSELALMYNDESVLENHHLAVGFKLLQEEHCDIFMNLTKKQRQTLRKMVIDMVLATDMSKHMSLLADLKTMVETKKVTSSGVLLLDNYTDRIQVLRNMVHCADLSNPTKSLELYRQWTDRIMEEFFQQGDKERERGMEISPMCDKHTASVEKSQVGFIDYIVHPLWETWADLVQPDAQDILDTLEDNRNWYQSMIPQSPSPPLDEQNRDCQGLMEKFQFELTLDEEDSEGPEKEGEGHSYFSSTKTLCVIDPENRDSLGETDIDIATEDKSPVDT

## CCOc1cc([C@@H](CS(C)(=O)=O)N2Cc3cccc(NC(=O)C4CC4)c3C2=O)ccc1OC [CC-11050]
Tuberculosis model
  Pulmonary damage and fibrosis: inhibited

## [O-][S@+]1CCc2nc(N3CCC(c4ncc(Cl)cn4)CC3)nc(NC3(CO)CCC3)c21 [Comp. of Form. III]
IPF patients [1]; [26]
  AE: Infections and infestations: 6 (23.1) n (%)
  Serious AEs: Results in Death, %: 0%
IPF patients [1]; [27]
  AE: Infections and infestations: 1 (4.3) n (%)
  Serious AEs: Results in Death, %: 4.3%
IPF patients [1]; AF-group, 18 mg b.i.d.
  AE: Infections and infestations: 7 (14.3) n (%)
  Patients with AE resulting in death: 1 (2.0) n (%)
IPF patients [1]; AF-group, 18 mg b.i.d., bracketed value marked * (fatal events)
  SAE: General disorders and administration side conditions, fatal events: [1 (2.1)]* n (%)
IPF patients [1]; AF-group, 18 mg b.i.d., fatal event
  SAE: Vasculitis: 1 (2.0)* n (%)
IPF patients [1]; Non-AF-group, 18 mg b.i.d.
  AE: Infections and infestations: 7 (14.6) n (%)
  Patients with AE resulting in death: 1 (2.1) n (%)
  SAE: Infections and Infestations: 1 (2.1) n (%)
IPF patients [1]; Non-AF-group, 18 mg b.i.d., fatal event
  SAE: Covid-19 pneumonia: 1 (2.1)* n (%)
IPF patients [1]; [28]
  AE: Infections and infestations: 14 (14.4) n (%)
  Patients with AE resulting in death: 2 (2.1) n (%)
  SAE: Covid-19 pneumonia: 1 (1.0) n (%)
  SAE: Infections and Infestations: 1 (1.0) n (%)
IPF patients [1]; active agent group, all, one Covid-19 pneumonitis, one unconfirmed vasculitis
  Patients who experienced an AE resulting in death: 2 patients
IPF patients [2]
  Moderate cases of diarrhoea: 2.1%
  Severe case of diarrhoea: 1.0%
IPF patients [3]; AF-group
  Not completed observation period: Death, %: 2.0%
  Not completed planned treatment period (prematurely discontinued trial medication), %: 20.4%
  Not completed treatment period: Adverse Event, %: 20.4%
IPF patients [3]; Non-AF-group
  Not completed observation period: Death, %: 2.1%
  Not completed planned treatment period (prematurely discontinued trial medication), %: 10.4%
  Not completed treatment period: Adverse Event, %: 6.3%
Human lung fibroblasts
  Effect on fibroblast proliferation: synergistic overadditive effect
PDE4 B subtype
  PDE4 subtype preference: inhibit preferentially the PDE4 B subtype

## CCOc1cc([C@@H](CS(C)(=O)=O)N2C(=O)c3cccc(NC(C)=O)c3C2=O)ccc1OC [apremilast]
[4]
  Fibrosis in colon, collagen deposition, fibrosis-related gene expression: inhibited fibrosis in colon, collagen deposition, and the expression of genes related to fibrosis
Skin fibrosis
  Skin fibrosis: inhibited

## COc1ccc([C@]2(C#N)CC[C@@H](C(=O)O)CC2)cc1OC1CCCC1 [cilomilast]
[5]
  FN-induced chemotaxis and contraction of collagen gels: inhibited FN-induced chemotaxis and contraction of collagen gels
Bleomycin mice [6]
  Late-stage lung fibrosis and collagen content: inhibit late-stage lung fibrosis and tended to reduce collagen content
  TGF-β1 and collagen type (Col) 1A1 expression: no effect

## COC(=O)c1ccc2c(c1)NC(=O)/C2=C(\Nc1ccc(N(C)C(=O)CN2CCN(C)CC2)cc1)c1ccccc1 [nintedanib]
Patients with IPF [7]
  Effect on FVC decline: can only reduce the decline in FVC
Patients with IPF [8]
  Most prominent side effects: gastrointestinal events, particularly diarrhea, nausea, vomiting, abdominal pain, decreased appetite and a decreased body weight

## COc1ccc(C(=O)Nc2c(Cl)cncc2Cl)cc1OC1CCCC1 [piclamilast]
[9]
  TGF-β-induced fibroblast-to-myofibroblast conversion (α-SMA expression): inhibited
[10]
  IL-1β plus bFGF-stimulated fibroblast proliferation: inhibition of IL-1β plus bFGF-stimulated fibroblast proliferation

## Cc1ccc(=O)n(-c2ccccc2)c1 [pirfenidone]
Patients with IPF [7]
  Effect on FVC decline: can only reduce the decline in FVC
Patients with IPF [8]
  Most prominent side effects: gastrointestinal events, particularly diarrhea, nausea, vomiting, abdominal pain, decreased appetite and a decreased body weight

## O=C(Nc1c(Cl)c[n+]([O-])cc1Cl)c1ccc(OC(F)F)c(OCC2CC2)c1 [roflumilast N-oxide]
[11]
  NHLF responses (collagen synthesis, proliferation, ROS and F2-isoprostane formation, NADPH oxidase 4 expression): inhibited
[12]
  ICAM-1 and eotaxin release, proliferation, α-SMA, CTGF, FN mRNA: inhibit intercellular adhesion molecule-1 and cotaxin release stimulated by TNF-α

## O=C(Nc1c(Cl)cncc1Cl)c1ccc(OC(F)F)c(OCC2CC2)c1 [roflumilast]
[13]; in vivo
  Right ventricular hypertrophy and vascular remodeling (pulmonary arteries): positively influenced
[13]; lung extracts
  Fibrosis, hydroxyproline content and mRNA expression in lung extracts: inhibited histologically assessed fibrosis, hydroxyproline content
[13]; oral
  Activity in preventive and therapeutic protocols: active both in preventive and in therapeutic protocols in a dose-dependent manner
[14]
  Liver fibrosis, hydroxyproline deposition, TGF-β1 expression: inhibited diethylnitrosamine-induced liver fibrosis, hydroxyproline deposition, and TGF-β1 expression
[15]
  TGF-β1-induced CTGF mRNA, α-SMA protein expression and FN: inhibition
[16]; mouse, in vivo
  Lung hydroxyproline content and mRNA expression of TNF-α, FN, CTGF: lowered lung hydroxyproline content and mRNA expression of TNF-α, fibronectin (FN), and CTGF
[16]; therapeutic regimen
  Potency relative to pirfenidone and nintedanib: therapeutically equipotent to pirfenidone and nintedanib
Bleomycin mice [17]
  Levels of the amino acids glycine and proline: lowered
  Lung glutathione and plasma tetrahydrobiopterin: increased
[18]
  TGF-β-induced mRNA expression of collagen α1, CTGF, and FN: inhibited
[19]; mouse, in vivo
  Fibrosis, collagen deposition, hydroxyproline, TGF-β1, cell infiltration, IL-6 and IL-1β mRNA: inhibited fibrosis, collagen deposition, hydroxyproline and TGF-β1 content, cell infiltration, and expression of mRNA for IL-6 and IL-1β
[19]; oral
  Lung fibrosis: attenuated

## COc1ccc(C2CNC(=O)C2)cc1OC1CCCC1 (stereo not shown) [rolipram]
[20]
  Collagen deposition, α-SMA staining and mRNA expression: inhibited collagen deposition, α-smooth muscle actin (α-SMA) staining, and mRNA expression
Sponge implant model
  Intra-implant collagen and TGF-β1 deposition: inhibiting intra-implant collagen and TGF-β1 deposition
[21]
  Collagen and TGF-β1 in colonic tissue: inhibited collagen and TGF-β1
[22]
  Epithelial-mesenchymal transition changes: inhibited epithelial-mesenchymal transition changes like FN and collagen mRNA expression, although not α-SMA mRNA
[23]
  Fibrotic score, hydroxyproline content, serum TNF-α: inhibit fibrotic score, hydroxyproline content, and serum tumor necrosis factor-α (TNF-α)
[5]
  FN-induced chemotaxis and contraction of collagen gels: inhibited FN-induced chemotaxis and contraction of collagen gels
Cecal abrasion model
  Fibrotic reactions: inhibited fibrotic reactions
[24]
  Renal interstitial fibrosis: inhibit renal interstitial fibrosis
Skin fibrosis
  Skin fibrosis: inhibited
[25]
  TGF-β-induced damage, FN expression, deficiency of mitochondrial biogenesis: inhibited TGF-β-induced damage, FN expression, and deficiency of mitochondrial biogenesis
Hepatic stellate cells
  mRNA expression of α-SMA and Col1A2: inhibited mRNA expression of α-SMA and Col1A2
